Measurements reported in patent US20160237160A1, “ANTI-TWEAKR ANTIBODIES AND USES THEREOF” (BAYER PHARMA AKTIENGESELLSCHAFT, priority 2013, published 2016).
pKd: −log10 of the molar value. Read-outs that look alike come from different tables or passages of the source.

Experiments:
[1] = system: CXF1103 patient-derived colorectal cancer model; assay: Xenograft anti-tumor efficacy; assay type: in vivo, mice; details: tumor weight, TPP-2090 10 mg/kg twice weekly for 4 weeks
Description: (§1) After tumor growth to a size of approximately 40 mm^2 mice were randomized into control and treatment groups with a respective group size of n=8-10. Mice were treated with various doses of anti-TWEAKR antibodies diluted in PBS by intravenous injection (i.v.) into the tail vein with a twice per week schedule (q4dx3: applications twice per week, three applications in total; q4dx8: applications twice per week, eight applications in total). Combination therapy partners such as Regorafenib (10 mg/kg daily, per os) and the PI3K-inhibitor 1 (10 mg/kg, BID, 2d on, 5d off (applications twice daily on two consecutive days, followed by five days without treatment), i.v.) were diluted in their respective formulations whereas the standard of care therapies Irinotecan (5 mg/kg, 4d on, 3d off (applications once daily on four consecutive days followed by three days without treatment) i.v.) and Paclitaxel (16 mg/kg, q7dx4 (applications once per week, four applications in total), i.v.) were diluted in 0.9% NaCl. Animals injected with PBS served as the control (vehicle) group. The applied volume of the compounds was 5 ml/kg body weight per mouse.
(§2) Tumor growth was monitored 2-3 times per week by caliper measurement (length×width in mm) as well as body weight (in g). At the end of study tumors were dissected, weighted and used for the calculation of tumor-to-control (T/C) ratios (mean tumor weight of treated animals divided by mean tumor weight of control/vehicle animals). […] 2×10^6 tumor cells in 100% Matrigel were s.c. inoculated in female nude mice. After 7d established tumors with a size of about 40 mm^2 were treated with 0.3 mg/kg, 1 mg/kg and 3 mg/kg of antibodies (i.v., q4dx3: applications twice per week, three applications in total).
(§3) Animal studies were conducted as described in example 8 for further human colorectal cancer tumor cell lines Colo205 and LoVo and for further human colorectal cancer patient-derived models Co7553, Co5896, Co5676, Co5841, CXF 1103 and CXF 533. […] The formulation of regorafenib is described in example 8.

[2] = system: CXF533 patient-derived colorectal cancer model; assay: Xenograft anti-tumor efficacy; assay type: in vivo, mice; details: tumor weight, TPP-2090 10 mg/kg twice weekly for 4 weeks
Description: as §1, §2, §3

[3] = system: Co5676 patient-derived colorectal cancer model; assay: Xenograft anti-tumor efficacy; assay type: in vivo, mice; details: tumor area, TPP-2090 10 mg/kg twice weekly for 4 weeks
Description: as §1, §2, §3

[4] = system: Co5841 patient-derived colorectal cancer model; assay: Xenograft anti-tumor efficacy; assay type: in vivo, mice; details: tumor weight, TPP-2090 10 mg/kg twice weekly for 4 weeks
Description: as §1, §2, §3

[5] = system: Colo205 xenograft (colorectal cancer); assay: Xenograft anti-tumor efficacy; assay type: in vivo, mice; details: tumor weight, TPP-2090 10 mg/kg twice weekly for 4 weeks
Description: as §1, §2, §3

[6] = system: LoVo xenograft (colorectal cancer); assay: Xenograft anti-tumor efficacy; assay type: in vivo, mice; details: tumor weight, TPP-2090 10 mg/kg twice weekly for 4 weeks
Description: as §1, §2, §3

[7] = system: Co7553 patient-derived colorectal cancer model; assay: Xenograft anti-tumor efficacy; assay type: in vivo, mice; details: tumor weight, TPP-2090 10 mg/kg twice weekly for 4 weeks
Description: Tumor growth was monitored 2-3 times per week by caliper measurement (length×width in mm) as well as body weight (in g). […]

[8] = molecular target: T1, TWEAKR protein (TPP-2305) (Homo sapiens, UniProt Q9NP84); assay: Biacore monovalent KD with TWEAKR protein; assay type: binding; details: first order 1:1 binding model
T1 construct: TPP-2305; hTNFRSF12Aaa28-80; Human; 30R-AT080; 168; purchased Fitzgerald Inc 30R-AT080
Description: Binding affinities of anti-TWEAKR antibodies were determined by surface plasmon resonance analysis on a Biacore T100 instrument (GE Healthcare Biacore, Inc.). Antibodies were immobilized onto a CM5 sensor chip through an indirect capturing reagent, anti-human IgG(Fc). Reagents from the “Human Antibody Capture Kit” (BR-1008-39, GE Healthcare Biacore, Inc.) were used as described by the manufacturer. Anti-TWEAKR antibodies were injected at a concentration of 10 μg/ml at 10 μl/min for 10 sec.
Sensorgrams were generated after in-line reference cell correction followed by buffer sample subtraction. The dissociation equilibrium constant (KD) was calculated based on the ratio of association (kon) and dissociation rated (koff) constants, obtained by fitting sensorgrams with a first order 1:1 binding model.

[9] = molecular target: T2, TWEAKR-Fc fusion protein (TPP-2202), aa 28-80 (Homo sapiens, UniProt Q9NP84); assay: ELISA with TWEAKR full ectodomain; assay type: binding; details: coating 1 μg/ml; 0.08 and 0.3 μg/ml biotinylated IgG
T2 construct: the full ectodomain 28-80 including the N- and C-terminus; made in house
Description: (§4) In a first approach to characterize the binding epitope of the aforementioned antibodies, a N- and C-terminal truncation mutant of the TWEAKR ectodomain was generated and tested for its ability to bind to the different anti-TWEAKR antibodies. N-terminally, amino acids 28 to 33 and C-terminally amino acids 69 to 80 were deleted, thus the cysteine rich domain with disulfide bridges between Cys36-Cys49, Cys52-Cys67 and Cys55-Cys64 remains intact (compare FIG. 2). Both constructs, the full ectodomain 28-80 including the N- and C-terminus and the truncated ectodomain 34-68 were expressed and purified as Fc fusion proteins TPP-2202 and TPP-2203, respectively.
(§5) To analyze for binding, 1 μg/ml of the respective dimeric TWEAKR-Fc construct were coated and, 0.3 μg/ml and 0.08 μg/ml of biotinylated IgG were used as soluble binding partner. Detection was done with Streptavidin-HRP and Amplex-Red substrate. IgGs were biotinylated using an approximately 2-fold molar excess of biotin-LC-NHS (Pierce; Cat. No. 21347) according to manufacturer's instructions and desalted using Zeba desalting columns (Pierce; Cat. No. 89889).

[10] = molecular target: T3, TWEAKR(34-68)-Fc fusion protein (TPP-2203) (Homo sapiens, UniProt Q9NP84); assay: ELISA with TWEAKR cysteine rich domain; assay type: binding; details: coating 1 μg/ml; 0.08 and 0.3 μg/ml biotinylated IgG
T3 construct: the truncated ectodomain 34-68 were expressed and purified as Fc fusion proteins; made in house
Description: as §4, §5

[11] = molecular target: T4, TWEAKR(28-68)-HIS (TPP-1984) (Homo sapiens, UniProt Q9NP84); assay: ELISA with C-terminally truncated TWEAKR ectodomain; assay type: binding; details: coating 1 μg/ml; 0.08 and 0.3 μg/ml biotinylated IgG
T4 construct: Extracellular domain with C-terminal truncation (28-68) fused to HIS6 tag; made in house
Description: as §5

Lovo cells = assay: Inhibition of proliferation (Cell Titer Glo); assay type: cell-based, human; details: 72h, 100 μg/ml antibody or *100 ng/ml TWEAK
Description: (§6) Therefore cells were plated in 96well plates in 750 assay medium (growth media from Table 21, plus 100 ng/ml IFN gamma for 786-O cells) at the following cell numbers: WiDr cells 3000 cells/well, 786-O cells 2500 cells/well. 24 h later cells were incubated with anti-TWEAKR antibodies (see Table 26), recombinant human TWEAK or isotype control IgG (not shown) at the indicated concentrations (antibodies from 0.03-300 μg/ml, TWEAK 100 or 300 ng/ml). At the time of antibody addition cell viability was determined in sister plates (time point zero): therefore 750/well CTG solution (Promega Cell Titer Glo solution (catalog # G755B and G756B) was added to the cells, incubated for 10 minutes and luminescence was read on a Victor V (Perkin Elmer). 96 h after incubation with the agents, cell viability was determined in the assay plates by addition of 100 μl/well CTG solution, 10 min incubation and reading of luminescence. Proliferation in control wells was calculated by subtracting time zero values from the luminescence values in the untreated control wells. % of cell proliferation was calculated in the compound treated wells as compared to the untreated control wells.
(§7) To evaluate, whether this strong anti-proliferative activity can also be observed in a broader cell panel, in addition LOVO, NCI-H1975, SW-480 (all 3000 cells/well), HT-29 (4000 cells/well), A253 and SK-OV3 (both 2500 cells/well) cells were incubated with 100 μg/ml anti-TWEAKR antibodies or TWEAK ligand for the time periods as indicated in Table 27. All cells were seeded in the growth media indicated in Table 21 and for all cells except for WiDr cells 100 ng/ml IFNgamma was added to the assay medium when seeding the cells. The percentage of growth inhibition for treated cells as compared to proliferation in untreated control cells was measured and calculated as described above. As shown in Table 27 the antibodies of the current invention are more efficacious as compared to other known antibodies in inhibiting proliferation of various cancer cell lines at 100 μg/ml. In most experiments the antibodies of the current invention also show equal or stronger efficacy as compared to 100-300 ng/ml TWEAK ligand. Thus, the antibodies described in this invention are unique in their activity to induce apoptosis and proliferation inhibition in a broad panel of cancer cell lines.

NCI-H1975 cells = assay: Inhibition of proliferation (Cell Titer Glo); assay type: cell-based, human; details: 72h, 100 μg/ml antibody or *100 ng/ml TWEAK
Description: as §6, §7

SW480 cells = assay: Inhibition of proliferation (Cell Titer Glo); assay type: cell-based, human; details: 72h, 100 μg/ml antibody or *100 ng/ml TWEAK
Description: as §6, §7

TWEAKR = TWEAKR (Homo sapiens, UniProt Q9NP84); details: published data, read-out: KD / binding affinity to TWEAKR (published), cited from earlier work

Row | Molecule | Final T/C [1] | Final T/C [2] | Final T/C [3] | Final T/C [4] | Final T/C [5] | Final T/C [6] | Final T/C [7] | ka [8] | kd [8] | ELISA binding to full ectodomain (28-80) [9] | ELISA binding to N- and C-terminally truncated construct (34-68) [10] | ELISA binding to C-terminally truncated ectodomain (28-68) [11] | % Inhibition of proliferation (Lovo cells) | % Inhibition of proliferation (NCI-H1975 cells) | % Inhibition of proliferation (SW480 cells) | pKd (TWEAKR; listed as BIIB036/P4A8) | pKd (TWEAKR)
1 | O=c1[nH]cc(F)c(=O)[nH]1 [5-FU, 5-fluorouracil] | 0.97 | 0.28 | 0.45 | 0.48 | – | – | – | – | – | – | – | – | – | – | – | – | –
2 | CCc1c2c(nc3ccc(OC(=O)N4CCC(N5CCCCC5)CC4)cc13)-c1cc3c(c(=O)n1C2)COC(=O)[C@]3(O)CC [Irinotecan] | 0.66 | – | 0.37 | 0.17 | 0.47 | 0.52 | 0.11 | – | – | – | – | – | – | – | – | – | –
3 | O=C1[O][Pt]2([NH][C@@H]3CCCC[C@H]3[NH]2)[O]C1=O [Oxaliplatin, oxaliplatin] | 1.29 | 1.08 | – | 0.81 | 0.89 | 0.76 | 0.78 | – | – | – | – | – | – | – | – | – | –
4 | P4A8(TPP-1324): reference agonistic anti-TWEAKR antibody, human IgG1, variable domains from WO2009/140177; SEQ ID NO 125/126 [reference compound] | – | – | – | – | – | – | – | 1.2e+06 M⁻¹ s⁻¹ | 0.0027 s⁻¹ | saturated binding | impaired binding | impaired binding | −5% | 20% | 5% | 8.77 | 8.59
